# Measurements from patent US11717536B2, “Treatment for periodontitis” (THE UNIVERSITY OF MELBOURNE, priority 2017, dated 2023).
# “Also recorded” adds a separate entry of the source. Marks after values point to notes of the source that are not given here.
# Key:
# Leptothrichia shahii = assay: Clinical trial: plaque microbial analysis, Leptothrichia shahii; assay type: in vivo; details: 18.8 mg CPP-ACP sugar-free gum, 20 min six times per day, 14 days, vs no gum chewing; supragingival plaque
# Source text: (§1) Following the completion of the examination and supragingival plaque collection, participants received a supragingival scaling, clean and prophylaxis of all their teeth. At the completion of the last examination for leg 3, each participant received a professional fluoride treatment.
# (§2) Participants had all supragingival plaque collected from the buccal surfaces of their maxillary molars (teeth 17, 16, 26 & 27) with a sterile scaling instrument. The plaque samples from each tooth were placed in separate sterile tubes, to give four samples per participant.
# (§3) Genomic DNA was extracted from the plaque using a combination of mechanical disruption of the cells via a Precellys homogeniser and the chemical extraction and purification of the genomic DNA via the PowerLyzer PowerSoil DNA Isolation Kit (MoBio). Quantitation of the extracted DNA was achieved using a Qubit dsDNA High Sensitivity Assay kit (ThermoFisher), before 5 ng DNA was used as template in a PCR reaction that amplified the V4 variable region of the 16S ribosomal RNA gene and individually barcoded the PCR product from each sample. The barcoded DNA was then sequenced using an Ion Torrent Personal Genome machine and Torrent Suite™ Software (ThermoFisher).
# (§4) Analysis of the resulting sequence of the 16S ribosomal RNA gene enabled identification of the bacterial population present in each sample, down to the species level. […]
# [1] = tested on: Veillonella parvula (ATCC 17745); assay: Six species polymicrobial biofilm in constant-depth film fermenter, species composition: V. parvula; assay type: cell-based
# Procedure: (§5) To model supragingival plaque six representative oral bacterial species, Streptococcus sanguinis (NCTC 7863), Streptococcus mutans Ingbritt, Actinomyces naeslundii (NCTC 10301), Veillonella parvula (ATCC 17745), Lactobacillus casei (NCDO 161) and Fusobacterium nucleatum (ATCC 10953) (Table 5) were cultured as a polymicrobial biofilm on a human enamel substratum in a constant-depth film fermenter (CDFF; Cardiff University, UK). The CDFF was housed in a 37° C. incubator under anaerobic conditions which were maintained by a constant flow of 5% CO2 in N2 at 1 L/h. The CDFF contained 15 removable polytetrafluoroethylene (PTFE) pans on a circular platform that was rotated at a constant speed of three rpm. The biofilms were grown on three enamel blocks (see below) in each PTFE pan using an artificial saliva medium (ASM, 2.5 g/L mucin type II (porcine, gastric, Sigma), 2.0 g/L bacteriological peptone (Oxoid), 2.0 g/L tryptone (Oxoid), 1.0 g/L yeast extract (Oxoid), 0.35 g/L NaCl, 0.2 g/L KCl, 0.2 mg/L vitamin K, 1 mg/L haemin and 0.1 g/L cysteine hydrochloride) at a constant flow rate of 30 mL/h. Prior to inoculation, the CDFF pan surfaces were conditioned for 24 h with ASM at a flow rate of 10 mL/h (McBain et al (2003) J Appl Microbiol. 94(4):655-66). In order to mimic in vivo bacterial growth conditions in the oral cavity with dietary sugar intake and to provide a high cariogenic challenge, a 1% (w/v) sucrose solution in ASM was pumped into the CDFF four times a day at four hourly intervals with a flow rate of 30 mL/h for 10 min.
# Three treatments were applied to the polymicrobial biofilms: 290 ppm fluoride with 220 ppm fluoride as SnF2 and 70 ppm fluoride as NaF (referred to as SnF2), 2% CPP-ACP and 2% CPP-ACP-SnF2. […]
# (§6) For each timepoint, DNA was extracted separately from 8-9 enamel blocks using PowerLyzer® PowerSoil® DNA Isolation Kits (MoBio Laboratories) following the manufacturers “Vacuum Protocol” with a Precellys® bead homogeniser (Bertin Technologies). Samples were quantified using a Qubit™ dsDNA HS assay kit (Life Technologies) before being stored at −80° C. […]
# supragingival plaque = assay: Clinical trial: microbial composition of supragingival plaque (16S rRNA gene sequencing), whole community; assay type: in vivo, human
# Source text: as §1, §2, §3, §4
# The individual 16S rDNA sequences produced for each sample were used to both classify the microbial lineages present (grouped as species level taxa) and determine the abundances of each taxon. Differences in the bacterial community over time was determined by measuring the changes in the relative taxon abundances for each individual.
# [2] = tested on: Streptococcus sanguinis (NCTC 7863); assay: Six species polymicrobial biofilm in constant-depth film fermenter, species composition: S. sanguinis; assay type: cell-based
# Procedure: as §5
# Three treatments were applied to the polymicrobial biofilms: 290 ppm fluoride with 220 ppm fluoride as SnF2 and 70 ppm fluoride as NaF (referred to as SnF2), 2% CPP-ACP and 2% CPP-ACP-SnF2. These treatments were compared with the control in which the test solution was replaced with ASM. Each treatment was applied using two 10 min pulses of the test solution in ASM with a flow rate of 30 mL/h. The first pulse started 30 min prior to the first sucrose pulse of the morning and the second started 3 h 30 min after the final sucrose pulse of the day.
# On day 6, 12 and 19 after inoculation four pans were removed aseptically from the CDFF and replaced with blank sterile pans. Enamel blocks from the pans were removed for bacterial enumeration and transverse microradiography.
# Planktonic and loosely attached bacterial cells were firstly removed from the enamel blocks by light washing with 100 μL ASM. […]
# as §6
# Leptotrichia buccalis = assay: Clinical trial: plaque microbial analysis, Leptotrichia buccalis; assay type: in vivo; details: 18.8 mg CPP-ACP sugar-free gum, 20 min six times per day, 14 days, vs no gum chewing; supragingival plaque
# Source text: as §1, §2, §3, §4
# [3] = 19 days, mean ± standard deviation, n = 5-21
substance,measurement,setting,value
Casein phosphopeptide-amorphous calcium phosphate [CPP-ACP],"% decrease in relative abundance, Leptothrichia shahii",Leptothrichia shahii,73% (p < 0.01)
same,V. parvula as a percentage of total bacteria in the biofilm,[1]; [3],6.71 ± 0.89^c %
same,change in abundance of V. parvula relative to the control (in words),"[1]; twice daily treatment, day 19",remained relatively constant
same,increases in commensal/beneficial species at the 56.4 mg dose compared with the 18.8 mg dose,"supragingival plaque; 56.4 mg CPP-ACP gum, 20 min six times per day, 14 days",significantly greater
same,proportion of pathogenic species (pathobionts),"supragingival plaque; CPP-ACP gum, 14 days, vs no treatment",concomitant reduction
same,proportion of the health-associated symbionts,"supragingival plaque; CPP-ACP treatment, randomised controlled clinical study",significant increase
same,S. sanguinis as a percentage of total bacteria in the biofilm,[2]; [3],19.85 ± 2.86^bc %
same,change in abundance of S. sanguinis relative to the control (in words),"[2]; twice daily treatment, day 19",significantly increased; also recorded: reproducible increases
same,"% decrease in relative abundance, Leptotrichia buccalis",Leptotrichia buccalis,76% (p < 0.05)
